In patent US5859007A, “CCK or gastrin modulating benzo [b][1,4] diazepines derivatives” (Glaxo Wellcome Inc., priority 1994, dated 1999):

Test system: isolated guinea pig gallbladder
Assay: Functional activity in isolated guinea pig gallbladder preparation
Assay type: cell-based
Details: expressed as % CCK-induced maximal response; for activation at 1 µM / activation at 30 µM: Cavia porcellus; for activation at 1 µM / %Contraction (1 × 10^-6 M): 1 × 10^-6 M test compound; for activation at 1 µM: read-out: %Contraction (1 × 10^-6 M); for activation at 30 µM / % Contraction (3 × 10^-5 M): 3 × 10^-5 M test compound; for activation at 30 µM: read-out: % Contraction (3 × 10^-5 M)
Experimental: 3. GUINEA PIG GALL BLADDER ASSAY
Gallbladders are removed from guinea pigs sacrificed by cervical dislocation. The isolated gallbladders are cleaned of adherent connective tissue and cut into two rings from each animal (2-4 mm in length). The rings are subsequently suspended in organ chambers containing a physiological salt solution (118.4 mM NaCl, 4.7 mM KCl, 1.2 mM MgSO4, 2.5 mM CaCl2, 1.2 mM KH2 […], 25 mM NaHCO3, 11.1 mM dextrose). The bathing solution is maintained at 37° C. and aerated with 95% O2 /5% CO2. Tissues are connected via gold chains and stainless steel mounting wires to isometric force displacement transducers (Grass, Model FT03 D). Responses are then recorded on a polygraph (Grass, Model 7E).
Rings are gradually stretched (over a 120 min. period) to a basal resting tension of 1 gm which is maintained throughout the experiment. During the basal tension adjustment period, the rings are exposed to acetylcholine (10^-6 M) four times to verify tissue contractility. The tissues are then exposed to a submaximal dose of sulfated CCK-8 (Sigma, 3×10^-9 M). After obtaining a stable response, the tissues are washed out 3 times rapidly and every 5 to 10 minutes for 1 hour to reestablish a stable baseline.
Compounds are dissolved in dimethylsulfoxide ([…]) followed by a concentration-response curve to sulfated CCK-8 (10^-10 to 10^-6 M) in the presence of the highest dose of the test compound. As a final test, ACH (10 mM) is added to induce maximal contraction. A minimum of three determinations of activity are made for each test compound.

SMILES | activation at 1 µM [%] | activation at 30 µM [%] | also measured
COc1ccc(N(C(=O)CN2C(=O)C(C)(Cc3n[nH]c4ccccc34)C(=O)N(c3cccnc3)c3ccccc32)C(C)C)cc1 (single isomer, unassigned) [Example 75, 2-[3-(1H-indazol-3-ylmethyl)-3-methyl-2,4-dioxo-5-pyridin-3-yl-2,3,4,5-tetrahydro-benzo[b][1,4]diazepin-1-yl]-N-isopropyl-N-(4-methoxy-phenyl)-acetamide] | 102 | 82 | 
COc1ccc(N(C(=O)CN2C(=O)C(Cc3n[nH]c4ccccc34)C(=O)N(c3cccnc3)c3ccccc32)C(C)C)cc1 (single isomer, unassigned; (+)) [Example 72, (+)-2-[3-(1H-Indazol-3-ylmethyl)-2,4-dioxo-5-pyridin-3-yl-2,3,4,5-tetrahydrobenzo[b][1,4]diazepin-1-yl]-N-isopropyl-N-(4-methoxyphenyl) acetamide] |  |  | %Contraction (1 × 10^-6 M): 104%; % Contraction (3 × 10^-5 M): 93%
COc1ccc(N(C(=O)CN2C(=O)C(Cc3n[nH]c4ccccc34)C(=O)N(c3cccnc3)c3ccccc32)C(C)C)cc1 (single isomer, unassigned; (-)) [Example 73, (-)-2-[3-(1H-Indazol-3-ylmethyl)-2,4-dioxo-5-pyridin-3-yl-2,3,4,5-tetrahydrobenzo[b][1,4]diazepin-1-yl]-N-isopropyl-N-(4-methoxyphenyl) acetamide] |  |  | %Contraction (1 × 10^-6 M): 58%; % Contraction (3 × 10^-5 M): 64%
CCOC(=O)c1cccc(NC(=O)CC2C(=O)N(CC(=O)N(c3ccccc3)C(C)C)c3ccccc3N(c3ccccc3)C2=O)c1 (stereo not shown) [Example 1] |  | 64 | 
CC(C)N(C(=O)CN1C(=O)C(CC(=O)Nc2cccc(C(=O)O)c2)C(=O)N(c2ccccc2)c2ccccc21)c1ccccc1 (stereo not shown) [Example 2] |  | 94 | 
CC(C)N(C(=O)CN1C(=O)C(C)(CC(=O)Nc2cccc(C(=O)O)c2)C(=O)N(c2ccccc2)c2ccccc21)c1ccccc1 (stereo not shown) [Example 3, 2-[2,4-Dioxo-5-phenyl-3-methyl-3-(3-carboxyphenyl)carbamoylmethyl-2,3,4,5-tetrahydro-benzo[b][1,4]diazepin-1-yl]-N-isopropyl-N-phenyl acetamide] | 75 | 102 | 
CC(C)N(C(=O)CN1C(=O)C(C)(CC(=O)Nc2ccccc2)C(=O)N(c2ccccc2)c2ccccc21)c1ccccc1 (stereo not shown) [Example 4, 2-(2,4-Dioxo-5-phenyl-3-methyl-3-phenylcarbamoylmethyl-2,3,4,5-tetrahydro-benzo[b][1,4]diazepin-1-yl)-N-isopropyl-N-phenyl acetamide] | 80 | 79 | 
CC(C)N(C(=O)CN1C(=O)C(C)(CC(=O)N(C)c2ccccc2)C(=O)N(c2ccccc2)c2ccccc21)c1ccccc1 (stereo not shown) [Example 5, 2-(2,4-Dioxo-5-phenyl-3-methyl-N-methyl-3-phenylcarbamoylmethyl-2,3,4,5-tetrahydro-benzo[b][1,4]diazepin-1-yl)-N-isopropyl-N-phenyl acetamide] | 9 |  | 
CC(C)N(C(=O)CN1C(=O)C(C)(CCNc2ccccc2)C(=O)N(c2ccccc2)c2ccccc21)c1ccccc1 (stereo not shown) [Example 6, N-Isopropyl-2-[3-methyl-2,4-dioxo-5-phenyl-3-(2-phenylaminoethyl)-2,3,4,5-tetrahydro-benzo[b][1,4]diazepin-1-yl]-N-phenyl acetamide] | 7 |  | 
CC(C)N(C(=O)CN1C(=O)C(C)(CC(=O)c2ccccc2)C(=O)N(c2ccccc2)c2ccccc21)c1ccccc1 (stereo not shown) [Example 7, N-Isopropyl-2-[3-methyl-2,4-dioxo-3-(2-phenyl-2-oxoethyl)-5-phenyl-2,3,4,5-tetrahydro-benzo[b][1,4]diazepin-1-yl]-N-phenyl acetamide] |  |  | %Contraction (1 × 10^-6 M): 15%
CC(C)N(C(=O)CN1C(=O)C(C)(C(C)C(=O)c2ccccc2)C(=O)N(c2ccccc2)c2ccccc21)c1ccccc1 (stereo not shown) [Example 8, N-Isopropyl-2-[3-methyl-2,4-dioxo-3-(1-phenyl-1-oxoprop-2-yl)-5-phenyl-2,3,4,5-tetrahydro-benzo[b][1,4]diazepin-1-yl]-N-phenyl acetamide] |  |  | %Contraction (1 × 10^-6 M): 16%
CC(C)N(C(=O)CN1C(=O)C(C)(CC(=O)Nc2ccccc2N)C(=O)N(c2ccccc2)c2ccccc21)c1ccccc1 (stereo not shown) [Example 9, 2-[3-(2-Amino-phenylcarbamoylmethyl)-3-methyl-2,4-dioxo-5-phenyl-2,3,4,5-tetrahydro-benzo[b][1,4]diazepin-1-yl]-N-isopropyl-N-phenyl acetamide] | 31 |  | 
CC(C)N(C(=O)CN1C(=O)C(C)(Cc2noc(-c3ccccc3)n2)C(=O)N(c2ccccc2)c2ccccc21)c1ccccc1 (stereo not shown) [Example 10, N-Isopropyl-2-[3-methyl-2,4-dioxo-5-phenyl-3-(5-phenyl-[1,2,4]oxadiazol-3-ylmethyl)-2,3,4,5-tetrahydro-benzo[b][1,4]diazepin-1-yl]-N-phenyl acetamide] | 7 |  | 
CC(C)N(C(=O)CN1C(=O)C(C)(CC=Cc2ccccc2)C(=O)N(c2ccccc2)c2ccccc21)c1ccccc1 (stereo not shown) [Example 11, N-Isopropyl-2-[3-methyl-2,4-dioxo-5-phenyl-3-(3-phenyl-allyl)-2,3,4,5-tetrahydro-benzo[b][1,4]diazepin-1-yl]-N-phenyl acetamide] | 10 |  | 
CC(C)N(C(=O)CN1C(=O)C(C)(CCCc2ccccc2)C(=O)N(c2ccccc2)c2ccccc21)c1ccccc1 (stereo not shown) [Example 12, N-Isopropyl-2-[3-methyl-2,4-dioxo-5-phenyl-3-(3-phenyl-propyl)-2,3,4,5-tetrahydro-benzo[b][1,4]diazepin-1-yl]-N-phenyl acetamide] | 19 |  | 
CC(C)N(C(=O)CN1C(=O)C(C)(CC(N)=O)C(=O)N(c2ccccc2)c2ccccc21)c1ccccc1 (stereo not shown) [Example 13, 2-[1-(Isopropyl-phenyl-carbamoylmethyl)-3-methyl-2,4-dioxo-5-phenyl-2,3,4,5-tetrahydro-1H-benzo[b][1,4]diazepine-3-yl]acetamide] | 6 |  | 
COc1ccc(N(C(=O)CN2C(=O)C(C)(CC(=O)Nc3ccccc3)C(=O)N(c3ccccc3)c3ccccc32)C(C)C)cc1 (stereo not shown) [Example 14, N-Isopropyl-N-(4-methoxy-phenyl)-2-(3-methyl-2,4-dioxo-5-phenyl-3-phenylcarbamoylmethyl-2,3,4,5-tetrahydro-benzo[b][1,4]diazepin-1-yl) acetamide] |  | 64 | 
CC(C)N(C(=O)CN1C(=O)C(C)(CCCC(=O)Nc2ccccc2)C(=O)N(c2ccccc2)c2ccccc21)c1ccccc1 (stereo not shown) [Example 15, N-Isopropyl-N-phenyl-2-(3-methyl-2,4-dioxo-5-phenyl-3-phenylcarbamoylpropyl-2,3,4,5-tetrahydro-benzo[b][1,4]diazepin-1-yl) acetamide] | 54 |  | 
CCC1(CC(=O)Nc2ccccc2)C(=O)N(CC(=O)N(c2ccccc2)C(C)C)c2ccccc2N(c2ccccc2)C1=O (stereo not shown) [Example 16, 2-(3-Ethyl-2,4-dioxo-5-phenyl-3-phenylcarbamoylmethyl-2,3,4,5-tetrahydro-benzo[b][1,4]diazepin-1-yl)-N-isopropyl-N-phenyl-acetamide] |  | 54 | 
COc1ccc(N(C(=O)CN2C(=O)C(CC(=O)Nc3ccccc3)C(=O)N(c3ccccc3)c3ccccc32)C(C)C)cc1 (stereo not shown) [Example 17, 2-(2,4-dioxo-5-phenyl-3-phenylcarbamoylmethyl-2,3,4,5-tetrahydro-benzo[b][1,4]diazepin-1-yl)-N-isopropyl-N-(4-methoxy-phenyl)-acetamide] | 48 | 55 | 
CC(C)N(C(=O)CN1C(=O)C(C)(Cc2cc3ccccc3[nH]2)C(=O)N(c2ccccc2)c2ccccc21)c1ccccc1 (stereo not shown) [Example 18, 2-[3-(1H-indol-2-ylmethyl)-3-methyl-2,4-dioxo-5-phenyl-2,3,4,5-tetrahydro-benzo[b][1,4]diazepin-1-yl]-N-isopropyl-N-phenyl acetamide] |  | 3 | 
CC(C)N(C(=O)CN1C(=O)C(C)(Cc2c[nH]c3ccccc23)C(=O)N(c2ccccc2)c2ccccc21)c1ccccc1 (stereo not shown) [Example 19, 2-[3-(1H-indol-3-ylmethyl)-3-methyl-2,4-dioxo-5-phenyl-2,3,4,5-tetrahydro-benzo[b][1,4]diazepin-1-yl]-N-isopropyl-N-phenyl acetamide] |  | 76 | 
COc1ccc(N(C(=O)CN2C(=O)C(Cc3cc4ccccc4[nH]3)(OC)C(=O)N(c3ccccc3)c3ccccc32)C(C)C)cc1 (stereo not shown) [Example 20, 2-[3-(1H-indol-2-ylmethyl)-3-methoxy-2,4-dioxo-5-phenyl-2,3,4,5-tetrahydro-benzo[b][1,4]diazepin-1-yl]-N-isopropyl-N-(4-methoxyphenyl) acetamide] |  | 66 | 
COc1ccc(N(C(=O)CN2C(=O)C(CC(=O)Nc3ccccc3)(OC)C(=O)N(c3ccccc3)c3ccccc32)C(C)C)cc1 (stereo not shown) [Example 21, N-Isopropyl-2-(3-methoxy-2,4-dioxo-5-phenyl-3-phenylcarbamoylmethyl-2,3,4,5-tetrahydro-benzo[b][1,4]diazepin-1-yl)-N-(4-methoxy-phenyl)-acetamide] | 80 | 90 | 
